Molecules are shown by their SMILES.

This experiment concerns Her2 protein levels in BT474 breast cancer cells. The experiment is described as follows: Her2 degradation in BT474 breast cancer cells (immunocytochemistry, ArrayScan vTi), marker for Hsp90 inhibition. The format is cell-based. The settings on record: Homo sapiens, BT-474, 8 h treatment, concentration at which cellular Her2 signal is diminished by 50% vs untreated controls. On the procedure:
The potency of the compounds of formula (I) were evaluated by measuring the Her2 degradation as a marker for Hsp90 inhibition.
Hsp90 is a key component of a chaperone machinery that catalyzes the folding and quality control of several proteins. Its inhibition impairs the capacity to fold or stabilize its client proteins, leading to the proteosomal dependent degradation of these unfolded proteins. At the moment there is an increasing number (>100) of reported Hsp90 clients, but one of the most frequently way to detect Hsp90 chaperone inhibition is the detection of Her2 protein levels after short time treatment (usually 8-24 h), in order to be sure about the specificity of this effect.
Cellular activity of Hsp90 inhibitors was assessed by measuring the induced loss of Her2 protein levels in BT474 breast cancer cells (ATCC #HTB-20). Cellular Her2 levels were measured by immunocytochemistry, and quantified using an ArrayScan vTi instrument (Cellomics Thermo Scientific).
Studies were performed as follows: 5000 cells/well are seeded in 96 well plates (Perkin Elmer) in DMEM/5% FCS and incubated for 48 h at 37° C., under 5% CO2.
Medium is then replaced with fresh medium containing test compounds at the required concentration. Concentration curves are prepared in DMEM/10% FCS from compound stocks in DMSO, and final DMSO concentration is 0.1% (v/v). Duplicate wells for each concentration point are prepared, with a typical highest compound concentration of 30 μM. After addition of compound, plates are returned to the incubator for 8 h, then fixed by replacing medium with PBS containing 3.7% paraformaldehyde solution. Plates are incubated for 20 minutes at room temperature, then wells are washed in PBS and cells permiabilised by incubating with PBS containing 0, 3% Triton X-100 for 15 minutes at room temperature. Non-specific binding sites are blocked by incubating wells for 1 h in PBS containing 3% (w/v) BSA. Wells are then incubated for 1 h at room temperature in PBS containing anti Her2 mouse monoclonal (Anti-c-ErbB2/c-Neu, Mouse mAb 3B5, Calbiochem Cat No OP15) diluted 1:100 in 1% (w/v) BSA. After 3 washes in PBS, wells are incubated in PBS (w/v) 1% BSA containing a 2 μg/ml of Cy2-conjugated Goat anti mouse secondary antibody (Amersham Pharmacia Biothech cat. No PA 42002) (Absorption maximum 489 nm fluorescence maximum 506 nm) and 1 μg/ml of DAPI (Absorption maximum 359 nm fluorescence maximum 461 nm) (4′,6-Diamidino-2-phenylindole, dilactate) (Sigma cat. No D 9564) a high sensitivity dye to detect nucleid acid for nuclear staining. After washing a further 3 times in PBS, cellular Her2 immunoreactivity is assessed using the ArrayScan vTi instrument, with a Zeiss 10×0.5 N.A. objective, and applying the Cytotoxity.V3 algorithm (Cellomics/Thermo Fisher) with a XF100 filter. At least 10 fields, corresponding to at least 900 cells, are read for each well. IC50 values represent the compound concentration at which cellular Her2 signal is diminished by 50% compared with untreated controls.
The following formula is used: IC50=Bottom+(Top−Bottom)/(1+10^((Log EC50−X)));
X is the logarithm of concentration. IC50 is the response; IC50 starts at Bottom and goes to Top with a sigmoid shape. The compounds of formula (I) tested as described above, result to induce the degradation of Her2 protein.
As usually defined, the IC50 is the concentration at which inhibition is half-maximal. A low value points to higher potency. `O=C(C1CCC2(CC1)OCCO2)N1CCc2n[nH]c(-c3cc(Cl)c(O)cc3O)c2C1` [compound 14, [3-(5-chloro-2,4-dihydroxyphenyl)-1,4,6,7-tetrahydro-5H-pyrazolo[4,3-c]pyridin-5-yl](1,4-dioxaspiro[4.5]dec-8-yl)methanone] came in with an IC50 of 1.1 µM.
The value for `O=C(c1ccc(-n2ccnc2)cc1)N1CCc2[nH]nc(-c3cc(Cl)c(O)cc3O)c2C1` [compound 16, [3-(5-chloro-2,4-dihydroxyphenyl)-1,4,6,7-tetrahydro-5H-pyrazolo[4,3-c]pyridin-5-yl][4-(1H-imidazol-1-yl)phenyl]methanone] was 8.3 µM; that for `CO[C@H]1CC[C@H](C(=O)N2CCc3[nH]nc(-c4cc(Cl)c(O)cc4O)c3C2)CC1` [compound 17, [3-(5-chloro-2,4-dihydroxyphenyl)-1,4,6,7-tetrahydro-5H-pyrazolo[4,3-c]pyridin-5-yl](trans-4-methoxycyclohexyl)methanone] was 3 µM; that for `COc1ccc(CN2CCc3[nH]nc(-c4cc(Cl)c(O)cc4O)c3C2)cc1OC` [compound 40, 4-chloro-6-[5-(3,4-dimethoxybenzyl)-4,5,6,7-tetrahydro-1H-pyrazolo[4,3-c]pyridin-3-yl]benzene-1,3-diol] was 4 µM.
`Oc1cc(O)c(-c2n[nH]c3c2CN(Cc2ccc(-n4ccnn4)cc2)CC3)cc1Cl` [compound 49, 4-chloro-6-{5-[4-(1H-1,2,3-triazol-1-yl)benzyl]-4,5,6,7-tetrahydro-1H-pyrazolo[4,3-c]pyridin-3-yl}benzene-1,3-diol] gave a 50% inhibitory concentration (IC50) of 3.4 µM.
Molecule `Oc1cc(O)c(-c2onc3c2CN(Cc2ccc(-n4ccnc4)cc2)CC3)cc1Cl` [compound 67, 4-chloro-6-{5-[4-(1H-imidazol-1-yl)benzyl]-4,5,6,7-tetrahydroisoxazolo[4,3-c]pyridin-3-yl}benzene-1,3-diol] showed an IC50 of 8.7 µM.

The values above are taken from US8309578B2, “Bicyclic pyrazole and isoxazole derivatives as antitumor and antineurodegenerative agents” (Nerviano Medical Sciences S.r.l., priority 2008, dated 2012).
